Laboratory results as given in PubChem BioAssay AID1259407 (Chemical Carcinogenesis Research Information System (CCRIS), 2018).
Calls of active or inactive are those of the source. No rule for the calls is given here.

Tested on: CCRIS mutagenicity, Ames/micronucleus/aberration tests
Experiment: CCRIS mutagenicity studies
[1] = Test System: AMES SALMONELLA TYPHIMURIUM, Strain/Indicator: TA98, Metabolic Activation: NONE, Method: STANDARD PLATE
[2] = Test System: AMES SALMONELLA TYPHIMURIUM, Strain/Indicator: TA100, Metabolic Activation: NONE, Method: STANDARD PLATE
[3] = Test System: AMES SALMONELLA TYPHIMURIUM, Strain/Indicator: TA1537, Metabolic Activation: NONE, Method: STANDARD PLATE
[4] = Test System: AMES SALMONELLA TYPHIMURIUM, Strain/Indicator: TA1538, Metabolic Activation: NONE, Method: STANDARD PLATE

For `Cc1c(-c2ccccc2)oc2c(C(=O)OCCN3CCCCC3)cccc2c1=O`, the mutagenic call [1] was “inactive; negative”, the mutagenic call (Test System: AMES SALMONELLA TYPHIMURIUM, Strain/Indicator: TA98, Metabolic Activation: S-9, Method: STANDARD PLATE) was “inactive; negative” and the mutagenic call [2] was “inactive; negative”. For the same molecule, the mutagenic call (Test System: AMES SALMONELLA TYPHIMURIUM, Strain/Indicator: TA100, Metabolic Activation: S-9, Method: STANDARD PLATE) was “inactive; negative”, the mutagenic call (Test System: AMES SALMONELLA TYPHIMURIUM, Strain/Indicator: TA1535, Metabolic Activation: NONE, Method: STANDARD PLATE) was “inactive; negative” and the mutagenic call (Test System: AMES SALMONELLA TYPHIMURIUM, Strain/Indicator: TA1535, Metabolic Activation: S-9, Method: STANDARD PLATE) was “inactive; negative”. For the same molecule, the mutagenic call [3] was “inactive; negative”, the mutagenic call (Test System: AMES SALMONELLA TYPHIMURIUM, Strain/Indicator: TA1537, Metabolic Activation: S-9, Method: STANDARD PLATE) was “inactive; negative” and the mutagenic call [4] was “inactive; negative”. The mutagenic call (Test System: AMES SALMONELLA TYPHIMURIUM, Strain/Indicator: TA1538, Metabolic Activation: S-9, Method: STANDARD PLATE) was “inactive; negative”.
For `O=[N+]([O-])c1ccc2c(c1)CCc1cc3c(cc1-2)CCc1ccccc1-3`, the mutagenic call (Test System: AMES SALMONELLA TYPHIMURIUM, Strain/Indicator: TA98(1,8-DNP6), Metabolic Activation: NONE) was “active; positive”, the mutagenic call (Test System: AMES SALMONELLA TYPHIMURIUM, Strain/Indicator: TA98(1,8-DNP6), Metabolic Activation: RAT, LIVER, S-9, AROCLOR 1254) was “active; positive” and the mutagenic call (Test System: AMES SALMONELLA TYPHIMURIUM, Strain/Indicator: TA98(NR), Metabolic Activation: NONE) was “active; positive”. The mutagenic call (Test System: AMES SALMONELLA TYPHIMURIUM, Strain/Indicator: TA98(NR), Metabolic Activation: RAT, LIVER, S-9, AROCLOR 1254) was “active; positive”, the mutagenic call (Test System: AMES SALMONELLA TYPHIMURIUM, Strain/Indicator: TA98, Metabolic Activation: NONE) was “active; positive” and the mutagenic call (Test System: AMES SALMONELLA TYPHIMURIUM, Strain/Indicator: TA98, Metabolic Activation: RAT, LIVER, S-9, AROCLOR 1254) was “active; positive”. For the same molecule, the mutagenic call (Test System: AMES SALMONELLA TYPHIMURIUM, Strain/Indicator: TA100(NR), Metabolic Activation: NONE) was “inactive; negative”, the mutagenic call (Test System: AMES SALMONELLA TYPHIMURIUM, Strain/Indicator: TA100(NR), Metabolic Activation: RAT, LIVER, S-9, AROCLOR 1254) was “active; positive” and the mutagenic call (Test System: AMES SALMONELLA TYPHIMURIUM, Strain/Indicator: TA100, Metabolic Activation: NONE) was “active; positive”. For the same molecule, the mutagenic call (Test System: AMES SALMONELLA TYPHIMURIUM, Strain/Indicator: TA100, Metabolic Activation: RAT, LIVER, S-9, AROCLOR 1254) was “active; positive”, the mutagenic call (Test System: AMES SALMONELLA TYPHIMURIUM, Strain/Indicator: TA104, Metabolic Activation: NONE) was “active; positive” and the mutagenic call (Test System: AMES SALMONELLA TYPHIMURIUM, Strain/Indicator: TA104, Metabolic Activation: RAT, LIVER, S-9, AROCLOR 1254) was “active; positive”.
For `CCC1CCC(CCC(=O)[O-])C1.CCC1CCC(CCC(=O)[O-])C1.[Co+2]` (centres undefined), the mutagenic call (Test System: AMES SALMONELLA TYPHIMURIUM, Strain/Indicator: TA98, Metabolic Activation: HAMSTER, LIVER, S-9, AROCLOR 1254 (10%), Method: STANDARD PLATE) was “inactive; negative”, the mutagenic call [1] was “inactive; negative” and the mutagenic call (Test System: AMES SALMONELLA TYPHIMURIUM, Strain/Indicator: TA98, Metabolic Activation: RAT, LIVER, S-9, AROCLOR 1254 (10%), Method: STANDARD PLATE) was “active; positive”. The mutagenic call (Test System: AMES SALMONELLA TYPHIMURIUM, Strain/Indicator: TA100, Metabolic Activation: HAMSTER, LIVER, S-9, AROCLOR 1254 (10%), Method: STANDARD PLATE) was “inactive; negative”, the mutagenic call [2] was “inactive; negative” and the mutagenic call (Test System: AMES SALMONELLA TYPHIMURIUM, Strain/Indicator: TA100, Metabolic Activation: RAT, LIVER, S-9, AROCLOR 1254 (10%), Method: STANDARD PLATE) was “inactive; negative”. For the same molecule, the mutagenic call (Test System: AMES SALMONELLA TYPHIMURIUM, Strain/Indicator: TA1537, Metabolic Activation: HAMSTER, LIVER, S-9, AROCLOR 1254 (10%), Method: STANDARD PLATE) was “inactive; negative”, the mutagenic call [3] was “inactive; negative” and the mutagenic call (Test System: AMES SALMONELLA TYPHIMURIUM, Strain/Indicator: TA1537, Metabolic Activation: RAT, LIVER, S-9, AROCLOR 1254 (10%), Method: STANDARD PLATE) was “inactive; negative”. For the same molecule, the mutagenic call (Test System: AMES SALMONELLA TYPHIMURIUM, Strain/Indicator: TA1538, Metabolic Activation: HAMSTER, LIVER, S-9, AROCLOR 1254 (10%), Method: STANDARD PLATE) was “inactive; negative”, the mutagenic call [4] was “inactive; negative” and the mutagenic call (Test System: AMES SALMONELLA TYPHIMURIUM, Strain/Indicator: TA1538, Metabolic Activation: RAT, LIVER, S-9, AROCLOR 1254 (10%), Method: STANDARD PLATE) was “active; positive”. The mutagenic call (Test System: MOUSE LYMPHOMA, Strain/Indicator: L5178Y (TK+/TK-), Metabolic Activation: NONE, Method: SUSPENSION/PLATE) was “inactive; negative. reevaluation of results: negative” and the mutagenic call (Test System: MOUSE LYMPHOMA, Strain/Indicator: L5178Y (TK+/TK-), Metabolic Activation: RAT, LIVER, S-9, AROCLOR 1254, Method: SUSPENSION/PLATE) was “inactive; negative. reevaluation of results: equivocal”.
In the case of `CC(C)C1(C)N=C(c2ncccc2C(=O)O)NC1=O` (centres undefined), the mutagenic call (End Point: IN VIVO MICRONUCLEUS, Test System: BONE MARROW POLYCHROMATIC ERYTHROCYTES, Species: MOUSE, Strain/Sex: SWISS/MALE, FEMALE, Route: IP 2X IN AQUEOUS SUSPENSION WITHIN 24 HR) is reported as “inactive; negative”.
In the case of `C1=CC23CCCC2(C=C1)O3` (centres undefined), the mutagenic call [1] is reported as “inactive; negative”, the mutagenic call [2] is reported as “active; positive” and the mutagenic call (Test System: AMES SALMONELLA TYPHIMURIUM, Strain/Indicator: TM677/8-AZAGUANINE, Metabolic Activation: NONE, Method: STANDARD PLATE) is reported as “active; positive”.
For `CN(N=O)C(CCC(=O)O)c1cccnc1` (centres undefined), the mutagenic call (Test System: UDS RODENT HEPATOCYTES, Metabolic Activation: NONE) was “inactive; negative”.
For `C=CC1(C)CO1` (centres undefined), the mutagenic call (End Point: IN VIVO MICRONUCLEUS, Test System: BONE MARROW POLYCHROMATIC ERYTHROCYTES, Species: MOUSE, Strain/Sex: C57/BL/MALE, Route: INTRAPERITONEAL INJECTION) was “active; positive”, the mutagenic call [1] was “inactive; negative” and the mutagenic call [2] was “inactive; negative”.
